# Experiments:
# Type in all cases: in vivo, human
# [1] = system: complement alternative pathway (AP) activity; assay: MAD study: serum AP activity ex vivo by AP Wieslab assay; details: for % AUEC0-12 / DURATION0-12: Days 7 and 14 combined analysis
# Procedure: Serum AP hemolysis activity was assessed in samples collected from all cohorts at predefined time points from Day 1 (pre-dose) through Day 21. Intense sampling was obtained on Day 1 (0 h to 12 h), Day 7 (0 h to 12 h), and Day 14 (0 h to 16 h); all other serum samples were collected at 0 h (morning PK troughs) on the indicated days. Activity for each cohort is shown for the complete time course Day 1-21 (FIG. 17), Day 1 (FIG. 18), Day 7 (FIG. 19) and Day 14 (FIG. 20). Serum complement AP activity measured ex vivo by the AP Wieslab assay, serum total complement classical pathway (CP) activity, plasma complement Bb concentrations, and serum FD, C3, and C4 concentrations were also measured at predefined time points.
# [2] = system: complement alternative pathway (AP) functional activity; assay: SAD study: alternative pathway functional activity by AP Wieslab assay
# Procedure: (§1) […] were dosed and evaluated in 4 dose groups with ten subjects receiving placebo (Table 1). The first dose group had 6 active and 6 placebo subjects; subsequent groups had 6 active and 2 placebo subjects each. Each group was followed for 28 days after dosing. All subjects were monitored for safety through the last scheduled visit at Day 28. Blood and urine samples were collected at predefined time points from Days 1 to 4 to determine plasma and urine concentrations of Compound 1 and from Days 1 to 7 to determine complement related activities. Results of serum AP activity measured by AP Wieslab assay as well as plasma Bb, factor D level and several other PD biomarkers were determined.
# For all subjects, blood samples were collected at specific protocol-defined time points from Day 1 to 7 to determine serum AP activity ex vivo using AP hemolysis assay and AP Wieslab assay.
# A graphical display of mean complement AP functional activity (% relative to positive control) through Day 7 (reported in days) and within 24 hours of dosing (by randomized treatment group and overall) can be found in FIG. 8B and FIG. 8A, respectively.
# [3] = system: Bb fragment of complement Factor B; assay: SAD study: Bb plasma concentrations; details: for mean Bb plasma concentration: eight hours post-dosing
# Procedure: as §1
# A graphical display of mean plasma Bb concentrations through Day 7 (reported in days) and within 24 hours of dosing (by randomized treatment group and overall) can be found in FIG. 9B and FIG. 9A, respectively. All Compound 1 dose groups evaluated had significant reductions in Bb plasma concentrations after single dose administration relative to baseline and the placebo-treated group as illustrated in FIG. 9A and FIG. 9B. Although the number of subjects evaluated in individual dose groups was relatively small (n=6), the magnitude of changes observed appeared to be dose-dependent. At baseline, the 40 mg, 80 mg, and 120 mg dose groups had Bb plasma concentrations within the normal reference range for the assay (i.e., 0.49 to 1.42 μg/mL); 40 mg, 80 mg, and 120 mg dose groups had mean (±SD) baseline values of 0.80 (±0.195) μg/mL, 0.78 (±0.128) μg/mL, and 0.70 (±0.095) μg/mL, respectively. Bb plasma concentrations reached a nadir 6 hours (in the 40 mg dose group) to 8 hours (in the 80 mg and 120 mg dose groups) post-dosing. Six hours post-dosing, mean (±SD) Bb plasma concentration in the 40 mg dose group had decreased to 0.51 (±0.091) μg/mL. Eight hours post-dosing, mean Bb plasma concentration had decreased to 0.48 (±0.056) μg/mL for the 80 mg dose group and 0.40 (±0.029) μg/mL for the 120 mg dose group. For the 80 mg and 120 mg dose groups, mean Bb plasma concentrations increased to above the LLN for the assay by 10 hours post-dosing (for the 80 mg dose group) and 24 hours (Day 2) (for the 120 mg dose group) post-dosing, respectively, with return to baseline values by 48 hours (Day 3) post-dosing. No subjects had treatment-emergent abnormalities in Bb plasma concentrations during the study.
# [4] = system: fD, C3, C4, classical pathway (CP) function; assay: Other complement assays (fD, C3, C4 serum concentration, serum total CP function)
# Procedure: as §1
# Serum AP hemolysis activity was assessed in samples collected from all cohorts at predefined time points from Day 1 (pre-dose) through Day 21. Intense sampling was obtained on Day 1 (0 h to 12 h), Day 7 (0 h to 12 h), and Day 14 (0 h to 16 h); all other serum samples were collected at 0 h (morning PK troughs) on the indicated days. […] Serum complement AP activity measured ex vivo by the AP Wieslab assay, serum total complement classical pathway (CP) activity, plasma complement Bb concentrations, and serum FD, C3, and C4 concentrations were also measured at predefined time points.
# [5] = Homo sapiens, sigmoidal model, multiple-dose cohorts
smiles,measurement,setting,value
"CC(=O)c1nn(CC(=O)N2[C@H](C(=O)Nc3nc(Br)ccc3C)C[C@@]3(C)C[C@@H]23)c2ccc(-c3cnc(C)nc3)cc12 [Compound 1, (1R,3S,5R)-2-(2-(3-acetyl-5-(2-methylpyrimidin-5-yl)-1H-indazol-1-yl)acetyl)-N-(6-bromo-3-methylpyridin-2-yl)-5-methyl-2-azabicyclo[3.1.0]hexane-3-carboxamide]",% AUEC0-12,[1]; 120 mg BID,98.6%
same,DURATION0-12,[1]; 120 mg BID,11.6 h
same,% AUEC0-12,[1]; 200 mg BID,99.3%
same,DURATION0-12,[1]; 200 mg BID,11.9 h
same,inhibition at 120 mg,"[1]; Homo sapiens, 120 mg BID and 200 mg BID, read-out: calculated percent inhibition across 0 h and 12 h time points",> 90%
same,EC50,"[1]; Homo sapiens, Emax model, multiple-dose cohorts",0.0143 µg/mL
same,EC50,[1]; [5],0.0192 µg/mL
same,EC90,[1]; [5],0.0669 µg/mL
same,time mean inhibition of 90% or greater maintained post-dosing,[2]; 40 mg dose group,at least 6 hours
same,time of nadir in AP functional activity post-dose,[2]; 40 mg dose group,1.5 h
same,lowest mean (±SD) AP functional activity (relative to positive control),[2]; 40 mg single dose,1.25 (±1.153) %
same,time of nadir in AP functional activity post-dose,[2]; 80 mg and 120 mg dose groups,3 h
same,lowest mean (±SD) AP functional activity (relative to positive control),[2]; 80 mg single dose,0.13 (±0.097) %
same,lowest mean (±SD) AP functional activity (relative to positive control),[2]; 120 mg single dose,0.09 (±0.102) %
same,Inhibition of AP functional activity,"[2]; all subjects, by 2 hours post-dose",> 90%
same,Inhibition of AP functional activity,"[2]; all treated subjects, 0.5 hours post-dose",> 80%
same,time mean inhibition of 90% or greater maintained post-dosing,[2]; higher dose groups studied,at least 10 hours
same,time of Bb plasma concentration nadir post-dosing,[3]; 40 mg dose group,6 h
same,mean (±SD) Bb plasma concentration,"[3]; 40 mg single dose, six hours post-dosing",0.51 (±0.091) μg/mL
same,time of Bb plasma concentration nadir post-dosing,[3]; 80 mg and 120 mg dose groups,8 h
same,time for mean Bb plasma concentration to increase above the LLN,[3]; 80 mg dose group,≤ 10 h
same,mean Bb plasma concentration,[3]; 80 mg single dose,0.48 (±0.056) μg/mL
same,time for mean Bb plasma concentration to increase above the LLN,[3]; 120 mg dose group,≤ 24 h
same,mean Bb plasma concentration,[3]; 120 mg single dose,0.40 (±0.029) μg/mL
same,time of Bb return to baseline values post-dosing,[3]; SAD dose groups,≤ 48 h
same,"change in serum CP activity and serum factor D, C3, C4 concentrations","[4]; MAD study single-dose cohorts (240 mg fasted, 120 mg fed)",no significant changes
same,"change in fD, C3, C4 serum concentration and serum total CP function","[4]; SAD, single dose up to 120 mg, vs baseline and placebo",no significant changes

# Reference: patent US12239645B2, “Targeted dosing for the treatment of complement mediated disorders” (Achillion Pharmaceuticals, Inc., priority 2018, dated 2025)
